Experimental data published in ChEMBL document CHEMBL1201862, “PubChem BioAssay data set” (2004).
Active and inactive are the calls of the source.

Tests used:
H4 = test: Luminescence Cell-Based Dose Response HTS to Identify Activators of 5'UTR Stem-Loop Driven Prion Protein mRNA Translation in H4 Neuroglioblastoma Cells. [Related pubchem assays: 1829 (Project Summary), 1814 (Primary HTS)]; assay type: functional; conditions: Homo sapiens
[1] = Luminescence Cell-Based Dose Response HTS to Identify Activators of Luciferase Translation or Activity in H4 […] Cells. [Related pubchem assays: 1829 (Project Summary), 1814 (Primary HTS)]; assay type: functional
Cytochrome P450 2C9 = Cytochrome P450 2C9 (Homo sapiens, UniProt P11712)
Cytochrome P450 3A4 = Cytochrome P450 3A4 (Homo sapiens, UniProt P08684);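 further: CYP3A4 tested as one member of a cytochrome P450 panel screen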
[2] = target: T1, Heat shock factor protein 1 (Mus musculus, UniProt P38532); test: decrease of HSF1-responsive luciferase luminescence – cell-based, NIH3T3, dose retest, confirmation (AID 2382); assay type: functional;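 further: NIH3T3 fibroblasts with HSF1-driven luciferase reporter stressed by proteasome inhibitor MG132; luminescence from HSF1-driven luciferase expression after 8 hours of MG132 stress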
T1 sequence (P38532 whole entry): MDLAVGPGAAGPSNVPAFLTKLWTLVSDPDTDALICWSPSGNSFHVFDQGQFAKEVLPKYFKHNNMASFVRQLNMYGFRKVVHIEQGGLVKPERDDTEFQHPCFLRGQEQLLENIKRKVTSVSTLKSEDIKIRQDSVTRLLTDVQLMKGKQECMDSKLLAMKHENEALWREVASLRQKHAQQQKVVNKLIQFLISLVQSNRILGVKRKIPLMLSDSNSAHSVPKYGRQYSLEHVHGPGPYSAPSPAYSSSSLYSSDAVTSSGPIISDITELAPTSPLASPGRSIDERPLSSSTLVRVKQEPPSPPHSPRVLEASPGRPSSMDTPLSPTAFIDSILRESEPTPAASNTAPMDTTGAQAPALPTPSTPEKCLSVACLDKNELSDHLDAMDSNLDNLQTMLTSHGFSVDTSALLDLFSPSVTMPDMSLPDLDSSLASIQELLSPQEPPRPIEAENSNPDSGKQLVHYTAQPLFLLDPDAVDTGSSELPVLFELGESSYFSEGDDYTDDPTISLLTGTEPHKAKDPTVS

Streptococcus = test: GAS UMAA2166 growth inhibition – luminescence, BacTiterGlo, counter-screen for streptokinase expression inhibitor project, dose response (AID 1915); assay type: functional, organism-based; conditions: Streptococcus;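 further: potency for reduction of bacterial viability or growth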
[3] = test system: Streptococcus sp. 'group A'; test: Streptococcus pyogenes SK(-)GAS viability under kanamycin – luminescence, BacTiterGlo, confirmation, counter-screen for streptokinase expression inhibitor project, dose response (AID 1900); assay type: functional, organism-based; conditions: Streptococcus sp. 'group A'
[4] = target: T1, Heat shock factor protein 1; test: enhancement of HSF1-driven luciferase signal – cell-based, NIH3T3, luminescence, dose retest, confirmation (AID 435004); assay type: functional;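 further: stress induced by proteasome inhibitor MG132 added 30 min after compound; luciferase reporter driven by HSF1 response element in NIH3T3 cells; actives raise luminescence as potentiators of the MG132 stress response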
[5] = target: T2, Corticotropin-releasing factor receptor 2/Corticotropin-releasing factor-binding protein (Homo sapiens, UniProt P24387+Q13324); test: activators of CRF receptor 2 with binding protein – uHTS hits, confirmation (AID 602473); assay type: functional; conditions: read-out: EC50_Mean
T2 sequence (Q13324 whole entry): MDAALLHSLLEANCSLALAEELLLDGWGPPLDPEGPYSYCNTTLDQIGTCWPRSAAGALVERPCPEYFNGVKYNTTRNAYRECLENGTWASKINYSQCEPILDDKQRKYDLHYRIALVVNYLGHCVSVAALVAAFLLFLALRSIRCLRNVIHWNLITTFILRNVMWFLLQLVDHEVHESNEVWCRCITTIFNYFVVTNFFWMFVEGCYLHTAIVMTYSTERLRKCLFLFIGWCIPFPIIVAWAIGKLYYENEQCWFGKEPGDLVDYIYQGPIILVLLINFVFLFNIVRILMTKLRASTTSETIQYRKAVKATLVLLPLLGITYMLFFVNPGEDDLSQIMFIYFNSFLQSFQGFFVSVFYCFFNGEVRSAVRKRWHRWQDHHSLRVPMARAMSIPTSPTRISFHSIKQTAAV
T2 sequence (P24387 whole entry): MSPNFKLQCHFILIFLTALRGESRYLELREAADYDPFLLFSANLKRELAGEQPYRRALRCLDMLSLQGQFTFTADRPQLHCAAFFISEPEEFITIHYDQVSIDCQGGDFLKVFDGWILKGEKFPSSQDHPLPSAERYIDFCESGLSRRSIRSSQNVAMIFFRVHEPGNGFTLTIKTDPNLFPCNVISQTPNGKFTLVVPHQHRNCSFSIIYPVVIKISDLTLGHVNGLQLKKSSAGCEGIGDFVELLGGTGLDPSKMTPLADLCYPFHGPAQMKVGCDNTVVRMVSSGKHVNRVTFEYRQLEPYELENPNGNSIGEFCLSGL

[6] = target: T3, Rac GTPase-activating protein 1 (Homo sapiens, UniProt Q9H0H5); test: blockers of MgcRacGAP-driven Rac1 GTP hydrolysis – biochemical, ADP Hunter fluorescence, primary and confirmatory, confirmation (AID 624330); assay type: functional
T3 sequence (Q9H0H5 whole entry): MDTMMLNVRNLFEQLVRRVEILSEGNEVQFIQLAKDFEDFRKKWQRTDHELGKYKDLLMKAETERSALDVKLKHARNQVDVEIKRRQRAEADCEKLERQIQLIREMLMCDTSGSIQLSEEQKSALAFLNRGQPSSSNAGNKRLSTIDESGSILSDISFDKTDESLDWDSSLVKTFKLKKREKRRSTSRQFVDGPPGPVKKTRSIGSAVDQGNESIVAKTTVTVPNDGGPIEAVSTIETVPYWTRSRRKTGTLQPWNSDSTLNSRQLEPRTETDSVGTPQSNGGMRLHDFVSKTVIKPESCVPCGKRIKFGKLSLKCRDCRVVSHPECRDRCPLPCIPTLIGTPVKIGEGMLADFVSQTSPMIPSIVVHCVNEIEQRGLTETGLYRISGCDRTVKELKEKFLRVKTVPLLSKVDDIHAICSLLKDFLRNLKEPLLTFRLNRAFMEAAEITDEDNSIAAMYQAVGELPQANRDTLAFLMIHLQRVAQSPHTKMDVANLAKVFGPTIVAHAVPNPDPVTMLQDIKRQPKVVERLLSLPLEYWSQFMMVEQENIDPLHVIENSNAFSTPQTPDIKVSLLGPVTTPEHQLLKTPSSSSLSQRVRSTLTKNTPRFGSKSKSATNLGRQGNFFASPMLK

Cytochrome P450 2C19 = Cytochrome P450 2C19 (Homo sapiens, UniProt P33261); test: Cytochrome panel assay with activity outcomes. Panel member name: p450-cyp2c19 Compounds with AC50 equal or less than 10 uM are considered active; assay type: functional; conditions: read-out: AC50
Cytochrome P450 2C19, sequence (P33261 whole entry): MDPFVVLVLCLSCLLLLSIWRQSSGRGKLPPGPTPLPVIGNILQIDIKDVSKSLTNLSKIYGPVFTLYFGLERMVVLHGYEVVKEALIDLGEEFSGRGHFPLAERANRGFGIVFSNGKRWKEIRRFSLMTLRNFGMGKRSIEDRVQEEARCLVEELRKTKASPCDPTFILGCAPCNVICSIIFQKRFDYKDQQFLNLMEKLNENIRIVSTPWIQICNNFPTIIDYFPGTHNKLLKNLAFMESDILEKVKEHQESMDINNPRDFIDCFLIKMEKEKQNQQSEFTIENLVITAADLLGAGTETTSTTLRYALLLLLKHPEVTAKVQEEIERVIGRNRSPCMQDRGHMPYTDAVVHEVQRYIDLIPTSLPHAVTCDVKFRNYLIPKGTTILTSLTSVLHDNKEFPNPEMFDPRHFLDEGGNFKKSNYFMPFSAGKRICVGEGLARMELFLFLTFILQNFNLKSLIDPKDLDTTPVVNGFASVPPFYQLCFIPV

Cytochrome P450 3A4, sequence (P08684 whole entry): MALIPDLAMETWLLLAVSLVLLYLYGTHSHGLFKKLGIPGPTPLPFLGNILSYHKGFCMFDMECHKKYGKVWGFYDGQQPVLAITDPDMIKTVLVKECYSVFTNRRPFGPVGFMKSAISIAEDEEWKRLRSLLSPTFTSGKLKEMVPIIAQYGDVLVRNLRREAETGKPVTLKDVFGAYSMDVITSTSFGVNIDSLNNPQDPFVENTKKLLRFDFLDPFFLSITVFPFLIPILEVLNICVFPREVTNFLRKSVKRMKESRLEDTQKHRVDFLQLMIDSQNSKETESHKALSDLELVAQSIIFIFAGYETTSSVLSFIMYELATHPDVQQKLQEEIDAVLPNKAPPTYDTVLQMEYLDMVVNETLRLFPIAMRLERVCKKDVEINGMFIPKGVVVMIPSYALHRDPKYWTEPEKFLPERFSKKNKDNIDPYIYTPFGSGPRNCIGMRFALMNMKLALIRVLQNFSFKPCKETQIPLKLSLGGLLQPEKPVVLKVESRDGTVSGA
Cytochrome P450 2C9, sequence (P11712 whole entry): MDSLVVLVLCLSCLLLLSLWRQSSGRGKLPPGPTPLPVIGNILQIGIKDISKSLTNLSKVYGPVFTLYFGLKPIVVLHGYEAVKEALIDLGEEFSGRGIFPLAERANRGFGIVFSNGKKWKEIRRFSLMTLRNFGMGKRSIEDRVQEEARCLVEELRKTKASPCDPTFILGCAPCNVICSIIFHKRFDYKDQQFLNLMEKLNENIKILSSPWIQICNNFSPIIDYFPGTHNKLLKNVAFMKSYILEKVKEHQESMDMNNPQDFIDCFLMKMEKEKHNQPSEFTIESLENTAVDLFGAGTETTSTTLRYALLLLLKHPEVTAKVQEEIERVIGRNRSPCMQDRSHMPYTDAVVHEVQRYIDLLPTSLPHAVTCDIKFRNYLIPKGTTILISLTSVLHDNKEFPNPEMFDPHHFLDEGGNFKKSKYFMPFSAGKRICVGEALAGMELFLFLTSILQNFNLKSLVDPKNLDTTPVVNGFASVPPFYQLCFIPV

Cc1cc(/C=C(\C#N)C(=O)NC2CC2)c(C)[nH]1
EC50 (H4): > 120 µM (not active)
EC50 [1]: 0.857 µM (active)

Cc1cccc(C(=O)c2ccccc2C(=O)O)c1O
AC50 (Cytochrome P450 2C9): 0.1 µM (inconclusive)
AC50 (Cytochrome P450 3A4): 25.1 µM (inconclusive)

N#C/C(=C/c1cc(Br)cs1)C(=O)NCC1CCCO1 (stereo unspecified)
EC50 [2]: > 195 µM (not active)

Cc1ccc2[nH]c(SCC(=O)c3ccc(Cl)s3)nc2c1
EC50 (Streptococcus): > 150 µM (not active)
EC50 [3]: > 150 µM (not active)

c1ccc(CNc2ncncc2-c2ccc3c(c2)OCO3)cc1
AC50 (Cytochrome P450 2C9): 0.316 µM (inconclusive)

O=c1c(-c2cccc(F)c2)nc2cncnc2n1-c1ccccc1
AC50 (Cytochrome P450 3A4): 20 µM (inconclusive)

Cc1cccc(C)c1NC(=O)CN1C(=O)NC(C)(CCc2ccccc2)C1=O (stereo unspecified)
EC50 [2]: > 195 µM (not active)

CC(=O)c1ccccc1NC(=O)C1C2CCC(O2)C1C(=O)O (stereo unspecified)
EC50 [4]: > 260 µM (inactive)

Cc1nc([N+](=O)[O-])cn1-c1ccc(N)cc1
EC50 [2]: > 195 µM (not active)

CC(=O)Nc1ccc(NC(=O)CSc2cn(CC(=O)N3CCOCC3)c3ccccc23)cc1
EC50 [2]: > 195 µM (not active)

OCCN=c1cc(-c2ccccc2)oc2ccc(Cl)cc12
AC50 (Cytochrome P450 3A4): 10 µM (inconclusive)

Cc1ccc(NC(=O)CN2C(=O)S/C(=C\c3cccn3C)C2=O)cc1
AC50 (Cytochrome P450 3A4): 7.08 µM (inconclusive)

CCn1nnnc1SCC(=O)c1ccc2c(c1)OCCO2
AC50 (Cytochrome P450 2C9): 17.8 µM (inconclusive)

O=C(NCc1ccccc1)[C@]1(C(F)(F)F)C[C@H](CCc2ccccc2)CCCO1
EC50 [2]: > 195 µM (not active)

CCOc1ccc(N2C(=O)/C(=C/c3cc(OC)c(OC)c(OC)c3)N(CC(=O)OC)C2=S)cc1
AC50 (Cytochrome P450 2C9): 1.41 µM (inconclusive)
AC50 (Cytochrome P450 3A4): 15.8 µM (inconclusive)

CC(=O)c1cnn(-c2c(Cl)cc(Cl)cc2Cl)c1C
EC50 [2]: > 195 µM (not active)

CCN(CC)S(=O)(=O)c1cccc(-c2nnc(SCC(N)=O)n2CCc2ccccc2)c1
EC50 [2]: > 195 µM (not active)

O=C(Cn1[nH]c(=O)c2ccccc2c1=O)OCC(=O)c1ccccc1Cl
EC50 [2]: > 195 µM (not active)

Cc1ccccc1NC(=O)COC(=O)c1ccc(S(C)(=O)=O)c([N+](=O)[O-])c1
EC50 [2]: 6.14 µM (active)

Cc1c(N=C2N=C(NC(=O)c3ccc(F)cc3)c3ccccc32)c(=O)n(-c2ccccc2)n1C
EC50 [5]: 15.6 µM (active)

CCn1c(SCc2ccc(C(=O)Nc3nccs3)cc2)nnc1-c1ccc(NC(C)=O)cc1
AC50 (Cytochrome P450 3A4): 1.12 µM (inconclusive)

NC(S)=NNc1ccnc2cc(Cl)ccc12
IC50 [6]: 110 µM (active)

CCCC[C@@H]1CN2[C@H](c3ccc(Br)cc3)[C@@H](C)CC[C@H]2C(=O)O1
AC50 (Cytochrome P450 3A4): 5.01 µM (inconclusive)

Cc1ccc(N[C@H](c2ccccc2)c2ccc3cccnc3c2O)cc1
AC50 (Cytochrome P450 2C19): 3.98 µM (inconclusive)
AC50 (Cytochrome P450 2C9): 3.98 µM (inconclusive)
AC50 (Cytochrome P450 3A4): 3.16 µM (inconclusive)

COc1ccc(S(=O)(=O)N2CCCN(CC(=O)Nc3ccc(OC)c(Cl)c3)CC2)cc1
AC50 (Cytochrome P450 2C9): 39.8 µM (inconclusive)

Cc1ccc(OC(=O)c2ccc3nc(C)sc3c2)cc1
EC50 [2]: 0.737 µM (active)

COc1ccc(N2CCN(C(CNS(=O)(=O)c3cccs3)c3cccnc3)CC2)cc1 (stereo unspecified)
IC50 [6]: 120 µM (active)

COCCN(CCOC)c1nc(-c2ccc(C)cc2)nc2ccccc12
EC50 [4]: > 260 µM (inactive)

CCC(=O)N1N/C(=C2/C(=O)NC(=O)N(CCc3ccccc3)C2=O)CC1c1ccc(OC)c(OC)c1 (stereo unspecified)
EC50 (Streptococcus): 26.4 µM (active)
EC50 [3]: 1.4 µM (active)

O=C(c1ccc(Cl)c(S(=O)(=O)N2CCCCCC2)c1)N1CCN(c2ccc(O)cc2)CC1
IC50 [6]: 33.7 µM (active)

Cc1ccccc1N1CCN(S(=O)(=O)Cc2ccccc2)CC1
EC50 [4]: > 260 µM (inactive)

COCCNc1nc(-c2ccccc2C)nc2ccccc12
AC50 (Cytochrome P450 3A4): 12.6 µM (inconclusive)

COc1ccc(C(=O)CCN(C)C)c2ccccc12
AC50 (Cytochrome P450 3A4): 0.316 µM (inconclusive)

COc1cc(/C=C2\SC(=S)N(NC(=O)c3ccc(O)cc3)C2=O)ccc1O
IC50 [6]: 59 µM (active)

Cc1ccc(N=Nc2c(=O)[nH]n3c(C)cc(C)nc23)cc1
AC50 (Cytochrome P450 2C19): 39.8 µM (inconclusive)
AC50 (Cytochrome P450 3A4): 25.1 µM (inconclusive)

Brc1ccccc1OCCCCCN1CCOCC1
IC50 [6]: 146 µM (active)

CCOC(=O)C1(CC2CCCCO2)CCN(Cc2nc3ccccc3[nH]2)CC1 (stereo unspecified)
EC50 [2]: > 195 µM (not active)

CC(C)N1CCC(N2CCN(C3CCCC3)CC2CCO)CC1 (stereo unspecified)
EC50 [2]: > 195 µM (not active)

COCCn1c(=O)c(C)nc2cnc(Oc3ccccc3)nc21
AC50 (Cytochrome P450 2C19): 39.8 µM (inconclusive)
AC50 (Cytochrome P450 3A4): 25.1 µM (inconclusive)

CCN(C(=O)c1ccc2c(SCC(=O)O)c3c(nc2c1)CCC3)c1cc(Cl)ccc1OC
EC50 [2]: > 195 µM (not active)

O=S(=O)(c1ccccc1)N1CN2CN(C1)CN(S(=O)(=O)c1ccccc1)C2
AC50 (Cytochrome P450 2C9): 0.631 µM (inconclusive)

CC(=O)NCCNc1ncnc2ccc(-c3cccc(NS(C)(=O)=O)c3)cc12
AC50 (Cytochrome P450 3A4): 7.94 µM (inconclusive)

CCN(CC)CCCNCC(=O)Nc1cc(C)on1
IC50 [6]: 99.4 µM (active)

Cn1c(N)c(-c2ccccc2)c2ccc([N+](=O)[O-])cc2c1=O
EC50 [5]: 4.5 µM (active)

O=C(O)c1ccn(Cn2cnc3ccccc32)n1
EC50 [2]: > 195 µM (not active)

Cc1nc2ccc(C(=O)Nc3ccc(N(C)C)cc3)cc2s1
IC50 [6]: 39.3 µM (active)

CCOc1cc(C=NNC(=O)CCCC(=O)NN=Cc2ccc(O)c(OCC)c2)ccc1O
IC50 [6]: 50.4 µM (active)

Cn1cccc1/C=N/N1CCN(Cc2ccccc2Cl)CC1
IC50 [6]: 82.1 µM (active)

CCCCC1CC(/C(C)=N/NC(N)=O)OC1=O (stereo unspecified)
AC50 (Cytochrome P450 2C9): 20 µM (inconclusive)

CCOc1cc(/C=N/NC(=O)c2cc(C3CC3)[nH]n2)ccc1O
IC50 [6]: 54.9 µM (active)

O=C(CNc1ccc2c(c1)OCO2)N/N=C\c1ccccc1Cl
IC50 [6]: 114 µM (active)

COC(=O)Cn1cc(/C=N/NC(=O)c2ccc(C#N)cc2F)c2ccccc21
AC50 (Cytochrome P450 2C19): 22.4 µM (inconclusive)
AC50 (Cytochrome P450 2C9): 8.91 µM (inconclusive)

COc1ccc(O/C(=N\S(=O)(=O)c2ccccc2)c2ccccc2)cc1
IC50 [6]: 45.5 µM (active)

Nc1ccc(C(=O)N/N=C/c2ccccc2)cc1
AC50 (Cytochrome P450 2C19): 15.8 µM (inconclusive)
AC50 (Cytochrome P450 2C9): 0.282 µM (inconclusive)
AC50 (Cytochrome P450 3A4): 15.8 µM (inconclusive)
